Drawing on patent publication US7943628B2, “Pyrimidine derivatives” (Pfizer Limited, priority 2005, dated 2011), this text covers Ki for 41 compounds.

Structures are written as SMILES.

The target in one test is T1, histamine H4 receptor (Homo sapiens, UniProt Q9H3N8).
T1 construct: expressed in transfected cells; host or cells: CHO cells
T1 sequence (Q9H3N8 whole entry): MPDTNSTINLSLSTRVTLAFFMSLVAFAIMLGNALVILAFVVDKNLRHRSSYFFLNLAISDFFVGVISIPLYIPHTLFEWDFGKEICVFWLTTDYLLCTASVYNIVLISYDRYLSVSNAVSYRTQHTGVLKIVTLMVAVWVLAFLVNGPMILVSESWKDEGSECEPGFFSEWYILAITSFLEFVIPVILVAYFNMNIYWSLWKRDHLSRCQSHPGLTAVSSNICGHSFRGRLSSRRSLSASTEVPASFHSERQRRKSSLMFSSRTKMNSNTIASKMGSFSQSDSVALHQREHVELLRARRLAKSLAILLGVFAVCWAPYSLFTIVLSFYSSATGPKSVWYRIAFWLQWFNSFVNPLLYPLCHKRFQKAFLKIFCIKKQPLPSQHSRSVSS
Briefly: H4 binding, method 2 ([3H]-histamine binding with Ysi WGA beads on CHO cell membranes). To be noted: H4 binding, method 2; Ki calculated from IC50 (Cheng-Prussoff); read-out: Method 2 (Ki (nM)). The method, then: Cell pellets from CHO cells expressing the histamine H4 receptor were homogenised in ice-cold 50 mM Tris-HCl/0.5 mM CaCl2 buffer containing a protease inhibitor cocktail (Roche®, United Kingdom) using a ground glass homogeniser. Homogenates were centrifuged at 48000 g for 30 min at 4° C. The membrane pellet was resuspended in fresh buffer and the centrifugation step was repeated as described above. The membrane pellet was resuspended in 50 mM Tris-HCl in the same volume as the original cell pellet. Aliquots of membrane preparations were stored at −80° C. and were used for [^3H]-Histamine binding experiments.
Cell membranes (15 μg/well) were pre-incubated for 120 min shaking at 4° C. with Ysi WGA beads (250 μg/well) in 50 mM Tris-HCl (pH 7.4) followed by centrifugation at 1500 rpm for 5 minutes and resuspension in 50 mM Tris-HCl (pH 7.4). The membrane/bead mixture (15 μg membrane/250 μg beads well) was incubated for 90 minutes shaking at room temperature with 6.5 nM [2,5-^3H] Histamine dihydrochloride (30-60 Ci/mmol) in 50 mM Tris-HCl (pH 7.4), with or without competing H4 ligands. Non-specific binding was defined with 10 μM JNJ7777120. Bound radiolabel was determined using scintillation counting techniques after 90 minutes.
For the compound `CC(C)CCNc1cc(N2C[C@H]3CN(C)C[C@H]3C2)nc(N)n1` [Example 41, N^4-(3-Methylbutyl)-6-[(3aR*,6aS*)-5-methylhexahydro-pyrrolo[3,4-c]pyrrol-2(1H)-yl]pyrimidine-2,4-diamine], the inhibition constant (Ki) (as a rule, the equilibrium dissociation constant of an inhibitor or competing ligand from its target) was 202 nM.
Turning to `CN1C[C@@H]2CN(c3cc(NC4CC4)nc(N)n3)C[C@@H]2C1` [Example 42, N^4-Cyclopropyl-6-[(3aR*,6aS*)-5-methylhexahydro-pyrrolo[3,4-c]pyrrol-2(1H)-yl]pyrimidine-2,4-diamine], the Ki was 433 nM.
The same measure, in the same setting: as for `CN1C[C@@H]2CN(c3cc(NC4CCC4)nc(N)n3)C[C@@H]2C1` [Example 43, N^4-Cyclobutyl-6-[(3aR*,6aS*)-5-methylhexahydro-pyrrolo[3,4-c]pyrrol-2(1H)-yl]pyrimidine-2,4-diamine], the figure is 236 nM.
On to `CNC1CN(c2cc(NCC3CC3)ncn2)C1` [Example 44, Cyclopropylmethyl-[6-(3-methylamino-azetidin-1-yl)-pyrimidin-4-yl]-amine], for which the Ki was 20.5 nM.
Consider `CNC1CN(c2cc(NCc3cccc(F)c3)ncn2)C1` [Example 45, (3-Fluoro-benzyl)-[6-(3-methylamino-azetidin-1-yl)-pyrimidin-4-yl]-amine], for which the Ki is 420 nM.
As for `CNC1CN(c2cc(NC(C)C)ncn2)C1` [Example 46, N-Isopropyl-6-[3-(methylamino)azetidin-1-yl]pyrimidin-4-amine], the inhibitory constant (Ki) was 40.1 nM.
Turning to `CNC1CN(c2cc(NCc3ccc(F)cc3)ncn2)C1` [Example 47, N-(4-Fluorobenzyl)-6-[3-(methylamino)azetidin-1-yl]pyrimidin-4-amine], the inhibitory constant (Ki) is 256 nM.
Still for that read-out and setting: as for `CCNc1cc(N2CC(NC)C2)ncn1` [Example 48, N-Ethyl-6-[3-(methylamino)azetidin-1-yl]pyrimidin-4-amine], the figure is 49.7 nM.
`CNC1CN(c2cc(NCCO)ncn2)C1` [Example 50, 2-({6-[3-(Methylamino)azetidin-1-yl]pyrimidin-4-yl}amino)ethanol]: the Ki is 279 nM.
For `CNC1CN(c2cc(NCc3ccccc3)ncn2)C1` [Example 51, N-Benzyl-6-[3-(methylamino)azetidin-1-yl]pyrimidin-4-amine], the Ki is 161 nM.
Same read-out and setting: the same measure for `CNC1CN(c2cc(NCc3ccccc3Cl)ncn2)C1` [Example 52, N-(2-Chlorobenzyl)-6-[3-(methylamino)azetidin-1-yl]pyrimidin-4-amine]: 99.7 nM; for `CNC1CN(c2cc(N3CCC(C)CC3)ncn2)C1` [Example 53, N-Methyl-1-[6-(4-methylpiperidin-1-yl)pyrimidin-4-yl]azetidin-3-amine]: 1940 nM; for `CNC1CN(c2cc(NCCOC)ncn2)C1` [Example 54, N-(2-Methoxyethyl)-6-[3-(methylamino)azetidin-1-yl]pyrimidin-4-amine]: 414 nM.
On the same count and under the same terms, the same measure for `CNC1CN(c2cc(NCCC(C)C)ncn2)C1` [Example 55, 6-[3-(Methylamino)azetidin-1-yl]-N-(3-methylbutyl)pyrimidin-4-amine]: 28.9 nM; for `CNC1CN(c2cc(N3CCCCC3)ncn2)C1` [Example 56, N-Methyl-1-(6-piperidin-1-ylpyrimidin-4-yl)azetidin-3-amine]: 1590 nM; for `CNC1CN(c2cc(NCC(C)(C)C)ncn2)C1` [Example 57, N-(2,2-Dimethylpropyl)-6-[3-(methylamino)azetidin-1-yl]pyrimidin-4-amine]: 20.3 nM.
Same read-out and setting: as for `CNC1CN(c2cc(NCc3cccc(OC)c3)nc(N)n2)C1` [Example 66, N^4-(3-Methoxy-benzyl)-6-(3-methylamino-azetidin-1-yl)-pyrimidine-2,4-diamine], the figure is 61.1 nM; as for `CNc1cc(N2CC(NC)C2)nc(N)n1` [Example 69, N^4-Methyl-6-[3-(methylamino)azetidin-1-yl]pyrimidine-2,4-diamine], 9.38 nM; as for `CNC1CN(c2cc(NC3CC3)nc(N)n2)C1` [Example 72, N^4-Cyclopropyl-6-[3-(methylamino)azetidin-1-yl]pyrimidine-2,4-diamine], 11.9 nM.
With `CNC1CN(c2cc(NCc3ccc(OC(F)(F)F)cc3)nc(N)n2)C1` [Example 76, 6-[3-(Methylamino)azetidin-1-yl]-N^4-[4-(trifluoromethoxy)benzyl]pyrimidine-2,4-diamine], the inhibition constant Ki is 125 nM.
Still for that read-out and setting: as for `CNC1CN(c2cc(NCc3ccc(C#N)cc3)nc(N)n2)C1` [Example 77, 4-[({2-Amino-6-[3-(methyl-amino)azetidin-1-yl]pyrimidin-4-yl}amino)methyl]benzonitrile], the figure is 255 nM; as for `CNC1CN(c2cc(NCc3ccccc3F)nc(N)n2)C1` [Example 78, N^4-(2-Fluorobenzyl)-6-[3-(methylamino)azetidin-1-yl]pyrimidine-2,4-diamine], 3.66 nM; as for `CNC1CN(c2cc(NCc3ccccc3)nc(N)n2)C1` [Example 79, N^4-Benzyl-6-[3-(methylamino)azetidin-1-yl]pyrimidine-2,4-diamine], 11.2 nM.
In the case of `CNC1CN(c2cc(NCc3cccc(C(F)(F)F)c3)nc(N)n2)C1` [Example 80, 6-[3-(Methylamino)azetidin-1-yl]-N^4-[3-(trifluoromethyl)benzyl]pyrimidine-2,4-diamine], the Ki was 103 nM.
Regarding `CNC1CN(c2cc(NCc3ccc(Cl)cc3)nc(N)n2)C1` [Example 81, N^4-(4-Chlorobenzyl)-6-[3-(methylamino)azetidin-1-yl]pyrimidine-2,4-diamine], the Ki is 12.1 nM.
Still for that read-out and setting: as for `CNC1CN(c2cc(NCc3ccccc3C)nc(N)n2)C1` [Example 82, 6-[3-(Methylamino)azetidin-1-yl]-N^4-(2-methylbenzyl)pyrimidine-2,4-diamine], the figure is 9.68 nM; as for `CNC1CN(c2cc(NCc3cccc(C)c3)nc(N)n2)C1` [Example 83, 6-[3-(Methylamino)azetidin-1-yl]-N^4-(3-methylbenzyl)pyrimidine-2,4-diamine], 62.3 nM.
As to `CNC1CN(c2cc(NCc3ccccc3C(F)(F)F)nc(N)n2)C1` [Example 84, 6-[3-(Methylamino)azetidin-1-yl]-N^4-[2-(trifluoromethyl)benzyl]pyrimidine-2,4-diamine], the Ki is 21.7 nM.
Still for that read-out and setting: the same measure for `CNC1CN(c2cc(NCc3ccc(C(F)(F)F)cc3)nc(N)n2)C1` [Example 85, 6-[3-(Methylamino)azetidin-1-yl]-N^4-[4-(trifluoromethyl)benzyl]pyrimidine-2,4-diamine]: 156 nM; for `CNC1CN(c2cc(NCc3cccc(Cl)c3)nc(N)n2)C1` [Example 86, N^4-(3-Chlorobenzyl)-6-[3-(methylamino)azetidin-1-yl]pyrimidine-2,4-diamine]: 142 nM.
Turning to `CNC1CN(c2cc(NCc3ccccc3OC)nc(N)n2)C1` [Example 87, N^4-(2-Methoxybenzyl)-6-[3-(methylamino)azetidin-1-yl]pyrimidine-2,4-diamine], the Ki is 17.4 nM.
In the case of `CNC1CN(c2cc(NCc3ccc(C)cc3)nc(N)n2)C1` [Example 88, 6-[3-(Methylamino)azetidin-1-yl]-N^4-(4-methylbenzyl)pyrimidine-2,4-diamine], the Ki is 35.8 nM.
Same read-out and setting: as for `CNC1CN(c2cc(NCc3ccccc3Cl)nc(N)n2)C1` [Example 89, N^4-(2-Chlorobenzyl)-6-[3-(methylamino)azetidin-1-yl]pyrimidine-2,4-diamine], the figure is 1.93 nM; as for `CNC1CN(c2cc(NCc3ccc(F)cc3)nc(N)n2)C1` [Example 90, N^4-(4-Fluorobenzyl)-6-[3-(methylamino)azetidin-1-yl]pyrimidine-2,4-diamine], 6.42 nM; as for `CN1CCN(c2cc(NCc3cccc(F)c3)nc(N)n2)CC1` [Example 91, N^4-(3-Fluorobenzyl)-6-(4-methylpiperazin-1-yl)pyrimidine-2,4-diamine], 386 nM.
On the same count and under the same terms, the same measure for `CN1C[C@@H]2CN(c3cc(NCc4cccc(F)c4)nc(N)n3)C[C@@H]2C1` [Example 92, N^4-(3-Fluorobenzyl)-6-[(3aR*,6aS*)-5-methylhexahydropyrrolo [3,4-c]pyrrol-2(1H)-yl]pyrimidine-2,4-diamine]: 1350 nM.
Same read-out and setting: the same measure for `C[C@@H]1CN(c2cc(NCCC(C)(C)C)nc(N)n2)CCN1` [Example 93, N^4-(3,3-Dimethylbutyl)-6-[(3R)-3-methylpiperazin-1-yl]pyrimidine-2,4-diamine]: 256 nM; for `C[C@H]1CN(c2cc(NCCC(C)(C)C)nc(N)n2)CCN1` [Example 94, N^4-(3,3-Dimethylbutyl)-6-[(3S)-3-methylpiperazin-1-yl]pyrimidine-2,4-diamine]: 61.1 nM; for `C[C@@H]1CN(c2cc(NCC(C)(C)C)nc(N)n2)CCN1` [Example 95, N^4-(2,2-Dimethylpropyl)-6-[(3R)-3-methylpiperazin-1-yl]pyrimidine-2,4-diamine]: 9.11 nM.
For the compound `C[C@H]1CN(c2cc(NCC(C)(C)C)nc(N)n2)CCN1` [Example 96, N^4-(2,2-Dimethylpropyl)-6-[(3S)-3-methylpiperazin-1-yl]pyrimidine-2,4-diamine], the Ki is 3.77 nM.

Still in this test, the particulars now being: Method 2 (Ki (nM)), H4 binding, method 2; Ki calculated from IC50 (Cheng-Prussoff).
For `CCNc1cc(N2CCN[C@H](C)C2)nc(N)n1` [Example 97, N^4-Ethyl-6-[(3R)-3-methylpiperazin-1-yl]pyrimidine-2,4-diamine], the inhibition constant (Ki) is 43.7 nM.
